Assay results from patent US20210179683A1, “METHOD OF RESPONSE PREDICTION FOR BCL2 FAMILY PROTEIN TARGETING DRUG” (Proteina Co., Ltd., priority 2019, published 2021).
Values belong to the molecule of their own block, whether it stands above or below them.

Assays:
BCL2-BAD interaction = molecular target: T1, BCL2-BAD interaction (Homo sapiens, UniProt P10415); test: PPI between endogenous BCL2 of drug-treated cells and exogenous BAD-GFP (single-molecule pull-down, TIRF); format: cell-based; details: 24 hours
T1 construct: endogenous in cells; host or cells: HL60, OCI-LY3
Description: (§1) Blood cancer cells (The Korean Cell Line Bank and ATCC; HL-60 (CVCL_0002), OCI-LY3 (CVCL_8800)), Ramos (CVCL_0597), U937, THP1, and SUDHL8) and the blood cancer cell pellets from buffy coats of patients were each suspended in a lysis buffer (HEPES 50 mM NaCl 150 mM Glycerol 10% (w/v) GDN (Digitonin) 1% (w/v) with 2% (w/v) phosphatase inhibitor cocktail ⅔ (P5726, P0044)) and vortexed three times at regular intervals of 10 min. After 30 min, the lysis buffer containing the pellet homogenate was centrifuged at 15,000 g for 10 min. The supernatant thus formed was used as an analysis lysate to be applied to a substrate in subsequent experiments. […]
The cell lysate, prepared in Example 1.2, containing the probe-labeled first protein-interacting protein was added to the substrate prepared in Example 1.3. […] Then, protein-protein interactions were measured as follows:
The substrate was fixedly mounted on a total internal reflection fluorescence and imaged to obtain data for protein-protein interaction (binding). […]
(§2) For example, the method proposed in this Example can quantitatively measure changes in PPI intensity and complex formation after and before treatment with BCL2-targeting inhibitors. […]

BCL-XL = molecular target: T2, BCL-XL (Homo sapiens, UniProt Q07817); test: PPI of endogenous BCL-XL of drug-treated cells with exogenous BAD; format: cell-based; details: HL60 or OCI-LY3 cells, 100 nM, 24 hours, vs DMSO
T2 construct: endogenous in cells; host or cells: HL60, OCI-LY3
Description: as §1
The cell lysate, prepared in Example 1.2, containing the probe-labeled first protein-interacting protein was added to the substrate prepared in Example 1.3. […] Then, protein-protein interactions were measured as follows: […]
as §2

MCL1-NOXA interaction = molecular target: T3, MCL1-NOXA interaction (Homo sapiens, UniProt Q07820); test: PPI between endogenous MCL1 of drug-treated cells and exogenous GFP-NOXA; format: cell-based; details: HL60 or OCI-LY3 cells, 100 nM, 24 hours, vs DMSO
T3 construct: endogenous in cells; host or cells: HL60, OCI-LY3
Description: Excess lysate was washed off with a washing buffer (HEPES 50 mM NaCl 150 mM glycerol 1% GDN 0.03%). Then, protein-protein interactions were measured as follows: […]

BCL2-BIM interaction [1] = molecular target: T4, BCL2-BIM interaction (Homo sapiens, UniProt P10415); test: BCL2-BIM PPI intensity with inhibitor added together with BIM-GFP to pulled-down BCL2; format: binding; details: various concentrations of inhibitor added with BIM-GFP; BCL2 from HL60
Description: Excess lysate was washed off with a washing buffer (HEPES 50 mM NaCl 150 mM glycerol 1% GDN 0.03%). Then, protein-protein interactions were measured as follows:
This Example can be used to measure direct relationship between targeting inhibitors used and the BCL2 family proteins and related signaling proteins. To this end, BCL2 or MCL1 protein was used as a first protein while BIM-GFP protein served as a first protein-interacting protein.

BCL2 = BCL2 expression level in drug-treated cells; details: OCI-LY3 cells, 24 hours
BAX = BAX level after forced N-terminus exposure with Triton X-100 in lysates of drug-treated cells; format: cell-based, human; details: Staurosporine for one hour or venetoclax for 24 hours; lysis buffer containing Triton X-100
Description: (§3) In order to achieve this Example, a specimen may be prepared by artificially inducing apoptosis.

BAX (N-terminus exposed) = test: Detection of N-terminus exposed (active conformation) BAX in GDN lysates of drug-treated cells; format: cell-based, human; details: Staurosporine for one hour or venetoclax for 24 hours; lysis buffer containing GDN
Description: as §3

leukocyte count = test: Leukocyte count of treated blood cancer patients; format: in vivo, human
Description: The method provided herein can lead to a method for tracing molecular states of a patient with time. In greater detail, the interaction analysis of bone marrow or blood specimens collected at various stages from a blood cancer patient can be used to provide information helpful in determining BCL2 family protein-dependence and whether to administer a corresponding targeted anticancer agent. […] Afterwards, a cord blood stem cell transplantation brought about complete remission in the patient. In addition, time series diagnosis was performed for patient 2 in the same manner as for patient 1 (FIG. 35). In patient 2, the signaling pathway of the BCL2 family protein could not be controlled by prescribing the FLT3 targeting inhibitor, either. […] From the results obtained above, it is understood that quizartinib prescription cannot bring about any clinical effect.

BCL2-BIM interaction [2] = molecular target: T4, BCL2-BIM interaction; test: BCL2-BIM PPI in bone marrow or whole blood specimens of blood cancer patients over the course of treatment; format: in vivo; set-up: PPI counts between BCL2, MCL1, or BCL-XL, all endogenous to the samples from patient 1, and exogenous BIM; from tissue; host or cells: bone marrow and whole blood of blood cancer patients; details: patient 1; bone marrow after quizartinib, whole blood after venetoclax and LDAC
Description: The method provided herein can lead to a method for tracing molecular states of a patient with time. In greater detail, the interaction analysis of bone marrow or blood specimens collected at various stages from a blood cancer patient can be used to provide information helpful in determining BCL2 family protein-dependence and whether to administer a corresponding targeted anticancer agent. […] Afterwards, a cord blood stem cell transplantation brought about complete remission in the patient.
In addition, time series diagnosis was performed for patient 2 in the same manner as for patient 1 (FIG. 35). In patient 2, the signaling pathway of the BCL2 family protein could not be controlled by prescribing the FLT3 targeting inhibitor, either. […] From the results obtained above, it is understood that quizartinib prescription cannot bring about any clinical effect.

T4 sequence (P10415 whole entry): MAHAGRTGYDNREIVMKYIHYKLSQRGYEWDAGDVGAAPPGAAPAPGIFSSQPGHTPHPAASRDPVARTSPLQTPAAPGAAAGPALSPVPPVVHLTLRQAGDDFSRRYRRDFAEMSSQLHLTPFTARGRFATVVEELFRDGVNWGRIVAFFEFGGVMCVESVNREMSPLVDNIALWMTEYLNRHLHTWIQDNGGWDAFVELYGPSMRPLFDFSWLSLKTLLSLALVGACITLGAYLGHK
T1 sequence (P10415 whole entry): as above
T3 sequence (Q07820 whole entry): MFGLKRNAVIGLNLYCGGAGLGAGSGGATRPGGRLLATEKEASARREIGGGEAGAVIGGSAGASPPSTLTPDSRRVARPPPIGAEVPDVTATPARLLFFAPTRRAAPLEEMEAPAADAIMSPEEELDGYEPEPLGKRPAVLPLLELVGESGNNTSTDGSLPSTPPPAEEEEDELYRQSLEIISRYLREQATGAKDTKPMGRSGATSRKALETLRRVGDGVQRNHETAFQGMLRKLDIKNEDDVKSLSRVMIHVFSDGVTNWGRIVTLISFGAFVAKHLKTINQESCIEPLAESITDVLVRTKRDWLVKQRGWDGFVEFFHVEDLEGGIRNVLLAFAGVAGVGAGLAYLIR
T2 sequence (Q07817 whole entry): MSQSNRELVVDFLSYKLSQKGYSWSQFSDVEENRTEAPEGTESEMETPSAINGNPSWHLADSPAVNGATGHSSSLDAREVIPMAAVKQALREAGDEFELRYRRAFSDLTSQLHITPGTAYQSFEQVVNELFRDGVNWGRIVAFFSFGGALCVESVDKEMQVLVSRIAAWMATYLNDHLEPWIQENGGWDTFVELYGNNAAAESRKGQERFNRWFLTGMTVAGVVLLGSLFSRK

BCL2-BAD PPI intensity (BCL2-BAD interaction; HL60 and OCI-LY3 cells, 100 nM, vs DMSO): did not change | BCL-XL PPI intensity (BCL-XL): responsive to none | MCL1-NOXA PPI (MCL1-NOXA interaction): selectively increase
Compound: CO[C@H]1/C=C/C[C@H](C)[C@@H](C)S(=O)(=O)NC(=O)c2ccc3c(c2)N(C[C@@H]2CC[C@H]21)C[C@@]1(CCCc2cc(Cl)ccc21)CO3 [AMG176]

BCL2-BIM PPI intensity (BCL2-BIM interaction [1]): not affected | BCL2-BAD interaction (PPI) (BCL2-BAD interaction; OCI-LY3 cells, vs non-treated group): no influences
Compound: Cc1c2c(nn1C)CSCc1cc(n(C)n1)CSc1cc(c3ccccc3c1)OCCCc1c(C(=O)O)n(C)c3c-2c(Cl)ccc13 [AZD5991]
expression level of BCL2 (BCL2): does not incite a significant change

Compound: CN[C@@H]1C[C@H]2O[C@@](C)([C@@H]1OC)n1c3ccccc3c3c4c(c5c6ccccc6n2c5c31)C(=O)NC4 [Staurosporine]
N-terminus-exposed BAX after artificial exposure with Triton X-100 (BAX): constant values | N-terminus exposed BAX signals (BAX (N-terminus exposed)): increased signals

BCL2-BIM PPI (BCL2-BIM interaction [2]): drastic increase
Compound: CC(C)(C)c1cc(NC(=O)Nc2ccc(-c3cn4c(n3)sc3cc(OCCN5CCOCC5)ccc34)cc2)no1 [quizartinib]
leukocyte count (leukocyte count; patient 1): drastic rise | leukocyte count (leukocyte count; patient 2): about three folds increased
